The values below come from patent publication US20100272674A1, “Hepatitis C Virus Inhibitors” (Bristol-Myers Squibb Company, priority 2008, published 2010).

Test [1] has as its target T1, HCV NS3/4A protease complex (Hepatitis C virus genotype 1a, UniProt P27958, C1454S/C1711G).
T1 construct: DNA encoding the recombinant HCV NS3/4A protease complex (amino acids 1027 to 1711) for these strains; inferred from pET21b vector and Ni-NTA purification; made in house; host or cells: Escherichia coli BL21 (DE3)
The test can be described thus: FRET peptide assay to monitor HCV NS3/4A proteolytic activity. In kind it is biochemical. An excerpt:
HCV NS3 protease complexes, derived from the BMS strain, H77 strain or J4L6S strain, were generated, as described below. These purified recombinant proteins were generated for use in a homogeneous assay (see below) to provide an indication of how effective compounds of the present disclosure would be in inhibiting HCV NS3 proteolytic activity.
Serum from an HCV-infected patient was obtained from Dr. T. Wright, San Francisco Hospital. An engineered full-length cDNA (compliment deoxyribonucleic acid) template of the HCV genome (BMS strain) was constructed from DNA fragments obtained by reverse transcription-PCR (RT-PCR) of serum RNA (ribonucleic acid) and using primers selected on the basis of homology between other genotype 1a strains. From the determination of the entire genome sequence, a genotype 1a was assigned to the HCV isolate according to the classification of Simmonds et al. (See P Simmonds, K A Rose, S Graham, S W Chan, F McOmish, B C Dow, E A Follett, P L Yap and H Marsden, J. Clin. Microbial., 31(6), 1493-1503 (1993)). […] The infectious clones, H77 (1a genotype) and J4L6S (1b genotype) were obtained from R. Purcell (NIH) and the sequences are published in Genbank (AAB67036, see Yanagi, M., Purcell, R. H., Emerson, S. U. and Bukh, J. Proc. Natl. Acad. Sci. USA. 94(16), 8738-8743 (1997); AF054247, see Yanagi, M., St Claire, M., Shapiro, M., Emerson, S. U., Purcell, R. H. and Bukh, J., Virology 244 (1), 161-172. (1998)).
The H77 and J4L6S strains were used for production of recombinant NS3/4A protease complexes. DNA encoding the recombinant HCV NS3/4A protease complex (amino acids 1027 to 1711) for these strains was manipulated as described by P. Gallinari et al. (see Gallinari P, Paolini C, Brennan D, Nardi C, Steinkuhler C, De Francesco R. Biochemistry. 38(17):5620-32, (1999)). Briefly, a three-lysine solubilizing tail was added at the 3′-end of the NS4A coding region. The cysteine in the P1 position of the NS4A-NS4B cleavage site (amino acid 1711) was changed to a glycine to avoid the proteolytic cleavage of the lysine tag. […]

Test [2] relates to HCV 1b replicon (Renilla luciferase reporter) in HUH-7 cells. The experiment in a line: HCV replicon luciferase reporter assay. The note with it: Huh-7, 96 h, 4 days, read-out: Potency in the 1b luciferase assay. Format: cell-based, Hepatitis C virus (strain 1b). An excerpt:
As a secondary assay, EC50 determinations from the replicon FRET assay were confirmed in a replicon luciferase reporter assay. Utilization of a replicon luciferase reporter assay was first described by Krieger et al (Krieger N, Lohmann V, and Bartenschlager R, J. Virol. 75(10):4614-4624 (2001)). The replicon construct described for our FRET assay was modified by inserting cDNA encoding a humanized form of the Renilla luciferase gene and a linker sequence fused directly to the 3′-end of the luciferase gene. This insert was introduced into the replicon construct using an Asc1 restriction site located in core, directly upstream of the neomycin marker gene. The adaptive mutation at position 1179 (serine to isoleucine) was also introduced (Blight K J, Kolykhalov, A A, Rice, C M, Science 290(5498):1972-1974). A stable cell line constitutively expressing this HCV replicon construct was generated as described above. The luciferase reporter assay was set up as described for the HCV replicon FRET assay with the following modifications. Following 4 days in a 37° C./5% CO2 incubator, cells were analyzed for Renilla Luciferase activity using the Promega Dual-Glo Luciferase Assay System. Media (100 μl) was removed from each well containing cells. To the remaining 50 μl of media, 50 μl of Dual-Glo Luciferase Reagent was added, and plates rocked for […] to 2 h at room temperature. Dual-Glo Stop & Glo Reagent (50 μl) was then added to each well, and plates were rocked again for an additional 10 min to 2 h at room temperature. Plates were read on a Packard TopCount NXT using a luminescence program.
The percentage inhibition was calculated using the formula below: […]
The values were graphed and analyzed using XLfit to obtain the EC50 value.

Test [3] has as its system HCV replicon in HUH-7 cells. The experiment in a line: HCV replicon FRET assay. In kind it is cell-based, Hepatitis C virus (strain 1b). The note with it: Hepatitis C virus, Huh-7, 96 h. An excerpt: An HCV replicon whole cell system was established as described by Lohmann V, Korner F, Koch J, Herian U, Theilmann L, Bartenschlager R., Science 285(5424):110-3 (1999). This system enabled us to evaluate the effects of our HCV Protease compounds on HCV RNA replication. Briefly, using the HCV strain 1b sequence described in the Lohmann paper (Assession number:AJ238799), an HCV cDNA was synthesized by Operon Technologies, Inc. (Alameda, Calif.), and the full-length replicon was then assembled in plasmid pGem9zf(+) (Promega, Madison, Wis.) using standard molecular biology techniques. […]
The HCV replicon FRET assay was developed to monitor the inhibitory effects of compounds described in the disclosure on HCV viral replication. […] After 4 days, cells were first assessed for cytotoxicity using alamar Blue (Trek Diagnotstic Systems) for a CC50 reading. The toxicity of compound (CC50) was determined by adding 1/10th volume of alamar Blue to the media incubating the cells. After 4 h, the fluorescence signal from each well was read, with an excitation wavelength at 530 nm and an emission wavelength of 580 nm, using the Cytofluor Series 4000 (Perspective Biosystems). […]

Structures are written as SMILES.

T1 sequence (P27958 1027-1711 C1454S/C1711G, one chain of several): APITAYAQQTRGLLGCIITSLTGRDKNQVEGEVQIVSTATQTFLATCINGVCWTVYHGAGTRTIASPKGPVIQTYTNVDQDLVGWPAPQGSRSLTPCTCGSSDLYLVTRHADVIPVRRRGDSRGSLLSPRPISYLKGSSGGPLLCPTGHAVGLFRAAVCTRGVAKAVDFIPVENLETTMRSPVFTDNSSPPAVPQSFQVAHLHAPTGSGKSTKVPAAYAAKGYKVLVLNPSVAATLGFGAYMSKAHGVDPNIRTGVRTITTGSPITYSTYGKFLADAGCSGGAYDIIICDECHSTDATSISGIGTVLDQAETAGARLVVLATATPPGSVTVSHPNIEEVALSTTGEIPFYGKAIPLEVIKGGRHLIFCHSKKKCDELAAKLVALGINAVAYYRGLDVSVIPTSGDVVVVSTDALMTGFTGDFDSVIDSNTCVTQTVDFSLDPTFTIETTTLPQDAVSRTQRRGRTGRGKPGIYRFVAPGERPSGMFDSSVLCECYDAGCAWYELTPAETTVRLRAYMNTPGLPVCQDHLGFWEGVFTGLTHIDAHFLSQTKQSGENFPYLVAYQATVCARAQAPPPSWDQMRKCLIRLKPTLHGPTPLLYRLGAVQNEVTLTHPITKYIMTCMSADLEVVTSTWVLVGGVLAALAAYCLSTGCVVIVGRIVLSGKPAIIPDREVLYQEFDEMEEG

In the case of `COc1cc2ccc3cc2cc1C=CCC(C)(C)COC(=O)N[C@H]1CCCCC/C=C\[C@@H]2C[C@@]2(C(=O)NS(=O)(=O)C2CC2)NC(=O)[C@@H]2C[C@]3(OC)CN2C1=O` (mixture of isomers) [Compound 1], the midpoint of inhibition in test [1], the IC50, lay at 1 nM. The EC50 in test [2] amounted to 1.6 nM; in test [3] it was 9.8 nM.
Consider `COc1cc2ccc3cc2cc1CCCCCCOC(=O)N[C@H]1CCCCCCC[C@@H]2C[C@@]2(C(=O)NS(=O)(=O)C2CC2)NC(=O)[C@@H]2C[C@]3(OC)CN2C1=O` [Compound 2], for which the IC50 in test [1] amounted to 5 nM. Further, the EC50 in test [2] came to 3.9 nM.
In the case of `COc1cc2ccc3cc2cc1CCCC(C)(C)CCOC(=O)N[C@H]1CCCCCCC[C@@H]2C[C@@]2(C(=O)NS(=O)(=O)C2CC2)NC(=O)[C@@H]2C[C@]3(OC)CN2C1=O` [Compound 3], the IC50 in test [1] is 1 nM. Further, the EC50 in test [2] stood at 2.7 nM.
